Source: patent US6576671B1, “Aminotetralin derivatives for the therapy of cardiovascular diseases” (Chiese Farmaceutici S.p.A., priority 1999, dated 2003)

Tests used:
[1] = tested on: dogs; conditions: approximately 10 μg/kg per minute continuous intravenous infusion; cited from earlier work
[2] = tested on: rats with left ventricular dysfunction; experiment: Rat model of left ventricular dysfunction after coronary artery occlusion, urine catecholamine excretion; assay type: in vivo
Experimental: Myocardial infarction (MI) was induced by left coronary artery ligation in 134 rats, and 6 were left unoperated. After two months, the survived animals with ECG evidence of MI entered a four-week treatment phase. They were randomly allocated to one of the following treatments: 1) delapril 6 mg.kg^−1.day^−1, (n=12), 2) delapril 6 mg.kg^−1.day^−1 and CHF 1024 0.33 mg.kg^−1.day^−1(n=13), 3) vehicle (0.05% ascorbic acid; n=12).
Delapril was dissolved in drinking water at the final concentration of 0.043 mg/ml. The delapril solutions were prepared, freshly every third day and their concentration adjusted to body weight every 15 days to obtain an average dose of 6 mg.kg^−1.day^−1.
CHF 1024 was administered continuously for four weeks through osmotic minipumps implanted subcutaneously behind the neck.
Concentrated solutions of CHF 1024 were dissolved in 10% ascorbic acid in distilled water at a final concentration of 40 mM (mean delivery rate 0.33 mg.kg^−1.day^−1).
At week 4 of treatment, the rats were placed in individual metabolic cages to collect 24-hour urine for measuring catecholamine excretion. […] Only rats with mean infarct size >12%, histologically determined in 6-10 serial cross-sections as percentage of LV area, were analyzed. The numbers of animals analyzed in each experimental group were 6 (vehicle), 6 (delapril alone), 8 (delapril and CHF 1024) and 6 non-operated.

[3] = molecular target: T1, α2 adrenergic receptors (Homo sapiens, UniProt P08913); experiment: α2 adrenergic receptor binding, [3H]-rauwolscine, human platelets
T1 construct: from tissue; host or cells: human platelets
T1 sequence (P08913 1-465): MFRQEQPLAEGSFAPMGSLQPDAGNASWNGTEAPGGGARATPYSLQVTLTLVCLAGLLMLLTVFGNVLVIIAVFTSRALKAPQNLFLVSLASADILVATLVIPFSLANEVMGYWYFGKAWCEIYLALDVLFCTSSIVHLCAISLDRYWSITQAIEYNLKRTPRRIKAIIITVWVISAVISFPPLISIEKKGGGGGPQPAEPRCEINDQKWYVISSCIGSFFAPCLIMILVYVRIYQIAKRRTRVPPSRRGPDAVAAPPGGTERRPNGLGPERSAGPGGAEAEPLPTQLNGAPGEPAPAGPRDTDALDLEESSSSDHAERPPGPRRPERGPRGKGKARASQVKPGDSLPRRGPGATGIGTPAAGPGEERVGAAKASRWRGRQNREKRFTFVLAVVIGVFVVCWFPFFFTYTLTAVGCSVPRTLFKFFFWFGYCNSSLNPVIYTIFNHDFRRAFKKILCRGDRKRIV
Excerpt: (§1) The antagonist [^3H]-rauwolscine was used as marker of the receptor, being its binding reversible, saturable and specific.

[4] = molecular target: peripheral DA2 dopaminergic receptors (Oryctolagus cuniculus, UniProt G1T1Q0); experiment: Peripheral DA2 dopaminergic activity in electrically stimulated rabbit rectococcygeus muscle; conditions: for IC50: read-out: IC50, 50% inhibition of the electrically induced contraction
peripheral DA2 dopaminergic receptors (Oryctolagus cuniculus, UniProt G1T1Q0), sequence (G1T1Q0 1-443): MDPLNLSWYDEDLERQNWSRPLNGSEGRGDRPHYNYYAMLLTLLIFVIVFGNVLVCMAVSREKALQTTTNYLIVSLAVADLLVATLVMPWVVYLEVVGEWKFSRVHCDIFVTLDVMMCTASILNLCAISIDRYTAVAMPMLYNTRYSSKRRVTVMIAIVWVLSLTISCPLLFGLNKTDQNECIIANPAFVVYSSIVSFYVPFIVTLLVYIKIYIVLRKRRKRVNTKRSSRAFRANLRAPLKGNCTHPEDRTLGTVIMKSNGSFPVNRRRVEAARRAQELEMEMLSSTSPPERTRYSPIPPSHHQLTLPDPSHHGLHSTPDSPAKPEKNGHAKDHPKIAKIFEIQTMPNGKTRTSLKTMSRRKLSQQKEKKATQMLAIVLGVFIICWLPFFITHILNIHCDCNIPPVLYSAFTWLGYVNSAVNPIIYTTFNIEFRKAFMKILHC
Excerpt: The activity of CHF 1024 and CHF 1035 on peripheral DA2 dopaminergic receptors has been tested in the electrically stimulated rabbit rectococcygeus muscle.

[5] = tested on: dopamine receptor; conditions: cited from earlier work
[6] = tested on: anesthetized rats; experiment: In vivo cardiovascular effects in anesthetized rats; design: species or system rat; conditions: for mean arterial pressure, change from basal value: 0.69 µg/kg/min i.v.
Experimental: Male albino rats (Sprague Dawley, 350-400 g) were anesthetized by sodium pentobarbital (60 mg/kg) and maintained by i.v. infusion (6 mg/h). The trachea was cannulated to facilitate spontaneous respiration and body temperature was maintained at 37 C. Homoiothermic Blanket Control System (Harvard, England).
The right femoral artery was cannulated for arterial blood pressure measurement and left jugular vein or duodenum were cannulated for drug administration. Mean arterial pressure and heart rate were continuously monitored by pressure transducer and medium gain amplifier triggered by the ECG signal, respectively. […]
CHF 1035 was administered intraduodenally (1 mg/kg).
The response to […] was determined in the absence and in the presence of the selective β2-adrenoceptor antagonist ICI 118.551 (0.2 mg/kg i.v.) and the selective DA2-dopaminergic antagonist domperidone (0 3 mg/kg i.v.) both alone and in combination. The antagonists were administered 10 min before the i.d. drug administration.

[7] = molecular target: α2-adrenergic receptors; experiment: α2-adrenergic activity in isolated neuronally-stimulated rat vas deferens; conditions: for IC50: isolated neuronally-stimulated rat vas deferens, read-out: IC50, 50% inhibition of the electrically induced contraction
[8] = tested on: α2 adrenergic receptors; experiment: α2 adrenergic receptor binding, [3H]-rauwolscine, rat cerebral cortex; conditions: for IC50: rat cerebral cortex, read-out: IC50, 50% inhibition of [3H]-rauwolscine specific binding
Experimental: The affinity of CHF 1024 and CHF 1035 for α2, adrenergic receptors was tested on human platelets and on rat cerebral cortex.
as §1
Values are expressed as IC50=molar concentration of drug required for 50% inhibition of [^3H]-rauwolscine specific binding.

[9] = molecular target: T2, peripheral DA2 dopaminergic receptors (Bos taurus, UniProt P20288); experiment: Peripheral DA2 dopaminergic binding test, [3H](-)sulpiride, bovine adrenal cortex
T2 construct: peripheral DA2 dopaminergic receptors was tested on bovine adrenal cortex; from tissue; host or cells: bovine adrenal cortex
T2 sequence (P20288 whole entry): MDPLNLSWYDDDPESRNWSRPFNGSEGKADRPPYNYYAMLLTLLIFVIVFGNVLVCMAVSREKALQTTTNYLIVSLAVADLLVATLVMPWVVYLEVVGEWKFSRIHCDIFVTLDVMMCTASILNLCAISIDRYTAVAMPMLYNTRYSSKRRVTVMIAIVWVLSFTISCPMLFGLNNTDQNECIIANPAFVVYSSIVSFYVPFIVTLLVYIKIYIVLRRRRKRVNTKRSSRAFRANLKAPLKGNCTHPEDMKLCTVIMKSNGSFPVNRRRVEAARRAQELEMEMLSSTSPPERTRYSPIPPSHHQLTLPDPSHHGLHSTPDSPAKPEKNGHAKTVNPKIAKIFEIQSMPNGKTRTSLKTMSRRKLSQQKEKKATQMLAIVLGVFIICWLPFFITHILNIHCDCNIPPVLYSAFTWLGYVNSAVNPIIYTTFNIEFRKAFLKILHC
Experimental: The affinity of CHF 1024 for peripheral DA2 dopaminergic receptors was tested on bovine adrenal cortex evaluating its effect on the interaction of [^3H](-)sulpiride with the specific binding sites of this system.

Br.CNC1CCc2c(ccc(O)c2O)C1 (stereo not drawn) [5,6-dihydroxy-2-methylaminotetralin hydrobromide]
coronary blood flow [1]: substantial increase

CNC1CCc2c(ccc(O)c2O)C1 (stereo not drawn) [CHF 1024, 5,6-dihydroxy-2-methylaminotetralin]
urine norepinephrine excretion, reduced with respect to the vehicle group ([2]; CHF 1024 0.33 mg.kg^−1.day^−1 s.c. minipump added to delapril 6 mg.kg^−1.day^−1, week 4): 40% | IC50 ([3]; human platelets, read-out: IC50, 50% inhibition of [3H]-rauwolscine specific binding): 339 nM | affinity higher than dopamine ([3]; platelets): 9 times | effect in presence of selective DA2-antagonist domperidone [4]: competitively antagonized | more potent than dopamine [4]: approximately 3 times | IC50 [4]: 37.3 nM | dopamine receptor agonist activity in relaxing splenic artery strips [5]: inactive | mean arterial pressure, change from basal value ([6]; 5 min after infusion start): −24.0 | mean arterial pressure, change from basal value ([6]; 5 min after infusion stop): −12.7 | mean arterial pressure, change from basal value ([6]; 30 min after infusion start): −25.7 | mean arterial pressure, change from basal value ([6]; 30 min after infusion stop): −6.7 | effect on mean arterial pressure ([6]; intravenous administration, persists after infusion discontinuation): dose-dependent reduction | heart rate ([6]; intravenous infusion, in spite of marked hypotension): no increase | IC50 [7]: 270 nM | more potent than dopamine ([7]; rat vas deferens): about 20 times | affinity higher than dopamine ([8]; cerebral cortex): 15 times | IC50 [8]: 262 nM | IC50 [9]: 21 nM | affinity for DA2 receptors higher than dopamine ([9]; bovine adrenal cortex): 11 times

NCCc1ccc(O)c(O)c1 [DOPAMINE, dopamine, reference compound]
IC50 [4]: 99.3 nM | IC50 [7]: 4910 nM | IC50 [8]: 4060 nM

CCOC(=O)[C@H](CCc1ccccc1)N[C@@H](C)C(=O)N(CC(=O)O)C1Cc2ccccc2C1 [delapril, reference compound]
urine norepinephrine excretion ([2]; delapril alone 6 mg.kg^−1.day^−1, week 4, 24-hour urine): unaffected
